Here are results for two molecules from US20030176314A1, “Compounds for the treatment of pain” (priority 2001, published 2003).

One assay deals with T1, rat NPFF2 receptor (Rattus norvegicus, UniProt Q9EQD2).
T1 construct: The full-length NPFF2 was amplified from rat spinal cord cDNA; expressed in transfected cells; host or cells: not given
Nature of the assay: Functional assay (agonist potency, intrinsic activity) at cloned rat NPFF2 receptor. The following applies: Table 7, intrinsic activity. The class given is cell-based.

Assay [1] deals with T2, norepinephrine (NE) transporter (Rattus norvegicus, UniProt Q63380).
T2 construct: evaluated at native, tissue-derived transporters; from tissue
T2 sequence (Q63380 1-617): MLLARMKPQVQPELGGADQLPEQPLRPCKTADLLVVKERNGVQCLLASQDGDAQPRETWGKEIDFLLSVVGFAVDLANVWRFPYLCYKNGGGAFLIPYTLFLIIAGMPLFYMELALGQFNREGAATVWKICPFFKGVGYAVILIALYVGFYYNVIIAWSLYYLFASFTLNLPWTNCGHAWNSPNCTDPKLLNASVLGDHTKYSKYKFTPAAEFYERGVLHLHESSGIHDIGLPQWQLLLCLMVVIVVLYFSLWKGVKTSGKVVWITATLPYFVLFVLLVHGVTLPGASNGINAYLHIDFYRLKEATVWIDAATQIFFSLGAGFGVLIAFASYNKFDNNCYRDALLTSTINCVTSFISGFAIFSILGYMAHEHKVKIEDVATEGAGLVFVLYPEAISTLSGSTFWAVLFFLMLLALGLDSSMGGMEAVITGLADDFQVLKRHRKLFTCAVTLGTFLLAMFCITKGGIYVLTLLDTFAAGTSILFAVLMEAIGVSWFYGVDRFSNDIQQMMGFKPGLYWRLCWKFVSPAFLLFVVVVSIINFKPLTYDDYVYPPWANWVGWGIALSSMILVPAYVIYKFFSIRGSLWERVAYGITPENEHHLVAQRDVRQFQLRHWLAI
Nature of the assay: Binding at native norepinephrine transporter (NE uptake). The following applies: Table 8. The gist of the method:
(§1)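 Binding (Ki) at native, tissue-derived rat serotonin and norepinephrine transporters, measured by the Owens (1997) protocol.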

The target in assay [2] is T3, serotonin (5HT) transporter (Rattus norvegicus, UniProt P31652).
T3 construct: evaluated at native, tissue-derived transporters; from tissue
T3 sequence (P31652 whole entry): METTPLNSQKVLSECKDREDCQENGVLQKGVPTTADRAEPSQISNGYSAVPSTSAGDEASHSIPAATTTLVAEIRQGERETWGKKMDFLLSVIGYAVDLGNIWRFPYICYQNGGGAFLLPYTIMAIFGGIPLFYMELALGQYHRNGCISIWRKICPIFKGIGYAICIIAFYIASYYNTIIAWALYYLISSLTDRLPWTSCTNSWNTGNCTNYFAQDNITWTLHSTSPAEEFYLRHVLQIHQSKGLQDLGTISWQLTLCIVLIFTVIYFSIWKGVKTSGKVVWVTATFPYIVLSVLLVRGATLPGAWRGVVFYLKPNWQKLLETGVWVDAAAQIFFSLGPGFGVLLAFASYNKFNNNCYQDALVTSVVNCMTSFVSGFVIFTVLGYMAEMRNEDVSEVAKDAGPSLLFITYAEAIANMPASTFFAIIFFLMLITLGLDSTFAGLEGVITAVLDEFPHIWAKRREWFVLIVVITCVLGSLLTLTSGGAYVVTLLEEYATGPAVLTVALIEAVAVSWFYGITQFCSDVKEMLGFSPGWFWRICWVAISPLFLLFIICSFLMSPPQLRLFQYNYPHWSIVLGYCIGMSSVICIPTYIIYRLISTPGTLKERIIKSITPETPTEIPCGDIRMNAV
Put plainly: Binding at native serotonin transporter (5HT uptake). The following applies: Table 8. The gist of the method:
as §1

The target of a further assay is T4, human Y1 receptor (Homo sapiens, UniProt P25929).
T4 construct: host or cells: 293 cells, line 293-hY1-5
T4 sequence (P25929 1-384): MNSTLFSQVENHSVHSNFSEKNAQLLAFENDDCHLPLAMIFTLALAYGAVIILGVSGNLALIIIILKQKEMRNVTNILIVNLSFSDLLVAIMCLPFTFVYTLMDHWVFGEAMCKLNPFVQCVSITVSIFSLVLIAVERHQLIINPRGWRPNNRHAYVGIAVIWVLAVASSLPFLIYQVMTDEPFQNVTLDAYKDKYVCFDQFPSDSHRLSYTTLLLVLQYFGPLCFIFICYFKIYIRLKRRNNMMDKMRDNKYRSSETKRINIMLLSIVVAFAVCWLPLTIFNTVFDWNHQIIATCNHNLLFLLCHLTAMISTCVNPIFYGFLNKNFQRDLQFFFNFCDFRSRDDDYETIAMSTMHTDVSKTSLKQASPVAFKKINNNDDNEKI
Put plainly: Binding at human neuropeptide Y Y1 receptor. The following applies: Table 8; read-out: hY1 Ki. From the text:
(§2) Neuropeptide receptors: Stably transfected cell lines which may be used for binding experiments include, for the Y1 receptor, 293-hY1-5 (deposited Jun. 4, 1996, under ATCC Accession No. CRL-12121); for the Y2 receptor, 293-hY2-10 (deposited Jan. 27, 1994, under ATCC Accession No. CRL-11837); for the Y4 receptor, L-hY4-3 (deposited Jan. 11, 1995, under ATCC Accession No. CRL 11779); and for the Y5 receptor, L-hY5-7 (deposited Nov. 15, 1995, under ATCC Accession No. CRL 11995).
(§3) Binding assays using the NPY receptors may be carried out according to the procedures described in U.S. Pat. No. 5,602,024, the disclosure of which is hereby incorporated by reference in its entirety into this application.
(§4) The binding affinity (Ki) of these compounds were tested according to the protocols described herein at the following receptors; human α1A, α1B, α1D, α2A, α2B, and α2C adrenergic receptors; human Y1, Y2, Y4, and Y5 receptors; and N-Methyl-D-aspartic acid (NMDA) receptor channels. The binding interactions of these compounds were additionally tested at the norepinephrine (NE) transporter (NE uptake) and serotonin (5-hydroxytryptamine (5HT)) transporter (5HT uptake) according to protocols described herein

Another assay has as its target T5, human Y2 receptor (Homo sapiens, UniProt P49146).
T5 construct: host or cells: 293 cells, line 293-hY2-10
T5 sequence (P49146 1-381): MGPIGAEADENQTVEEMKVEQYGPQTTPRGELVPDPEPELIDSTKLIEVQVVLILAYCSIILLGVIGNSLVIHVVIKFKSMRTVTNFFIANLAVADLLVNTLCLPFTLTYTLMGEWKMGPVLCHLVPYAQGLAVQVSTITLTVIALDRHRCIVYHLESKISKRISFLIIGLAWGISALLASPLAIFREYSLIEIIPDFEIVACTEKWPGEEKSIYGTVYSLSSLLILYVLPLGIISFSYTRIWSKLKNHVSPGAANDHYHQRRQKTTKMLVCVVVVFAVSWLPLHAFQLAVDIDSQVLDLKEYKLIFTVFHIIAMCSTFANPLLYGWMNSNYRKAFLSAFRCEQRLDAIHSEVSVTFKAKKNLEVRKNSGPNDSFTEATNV
Put plainly: Binding at human neuropeptide Y Y2 receptor. The following applies: Table 8; read-out: hY2 Ki.
Source text: as §2, §3, §4

For another assay, the target named is T6, human Y4 receptor (Homo sapiens, UniProt P50391).
T6 construct: host or cells: L cells, line L-hY4-3
T6 sequence (P50391 whole entry): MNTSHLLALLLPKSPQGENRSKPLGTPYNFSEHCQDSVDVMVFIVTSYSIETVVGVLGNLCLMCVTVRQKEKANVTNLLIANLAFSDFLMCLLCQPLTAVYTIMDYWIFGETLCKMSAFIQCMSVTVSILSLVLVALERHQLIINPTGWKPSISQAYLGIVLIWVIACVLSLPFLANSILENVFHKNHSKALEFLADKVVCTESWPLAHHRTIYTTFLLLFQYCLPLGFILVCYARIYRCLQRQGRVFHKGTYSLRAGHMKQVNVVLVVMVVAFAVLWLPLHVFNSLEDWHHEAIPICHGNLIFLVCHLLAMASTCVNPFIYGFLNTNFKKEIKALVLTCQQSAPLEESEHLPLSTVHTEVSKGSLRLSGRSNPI
Put plainly: Binding at human neuropeptide Y Y4 receptor. The following applies: Table 8; read-out: hY4 Ki.
Source text: as §2, §3, §4

In the next assay the target is T7, human Y5 receptor (Homo sapiens, UniProt Q15761).
T7 construct: host or cells: L cells, line L-hY5-7
T7 sequence (Q15761 1-445): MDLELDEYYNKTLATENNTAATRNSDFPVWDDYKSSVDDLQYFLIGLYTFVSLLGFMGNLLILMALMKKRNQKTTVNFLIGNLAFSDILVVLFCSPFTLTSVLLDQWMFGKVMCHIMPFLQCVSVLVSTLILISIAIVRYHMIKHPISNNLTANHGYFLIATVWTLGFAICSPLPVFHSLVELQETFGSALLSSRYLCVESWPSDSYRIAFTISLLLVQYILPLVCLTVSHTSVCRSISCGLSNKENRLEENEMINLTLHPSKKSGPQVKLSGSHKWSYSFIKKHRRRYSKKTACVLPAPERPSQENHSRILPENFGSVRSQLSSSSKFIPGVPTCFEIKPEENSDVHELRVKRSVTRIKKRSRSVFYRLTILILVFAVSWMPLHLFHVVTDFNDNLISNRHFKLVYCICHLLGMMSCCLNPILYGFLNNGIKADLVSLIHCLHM
Nature of the assay: Binding at human neuropeptide Y Y5 receptor. The following applies: Table 8; read-out: hY5 Ki.
Source text: as §2, §3, §4

T1 sequence (Q9EQD2 whole entry): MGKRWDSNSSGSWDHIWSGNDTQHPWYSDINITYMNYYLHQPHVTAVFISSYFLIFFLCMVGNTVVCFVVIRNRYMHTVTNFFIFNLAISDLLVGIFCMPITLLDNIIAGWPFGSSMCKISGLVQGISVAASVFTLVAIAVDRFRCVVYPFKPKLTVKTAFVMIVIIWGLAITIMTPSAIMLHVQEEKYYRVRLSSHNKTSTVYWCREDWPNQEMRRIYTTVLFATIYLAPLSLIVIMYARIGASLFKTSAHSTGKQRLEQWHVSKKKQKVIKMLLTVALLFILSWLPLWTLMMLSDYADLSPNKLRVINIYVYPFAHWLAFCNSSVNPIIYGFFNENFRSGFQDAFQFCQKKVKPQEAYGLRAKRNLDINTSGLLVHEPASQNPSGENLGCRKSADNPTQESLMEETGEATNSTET

Usually Ki stands for the equilibrium dissociation constant of an inhibitor or competing ligand from its target. `Cc1nc(NC(=N)N)nc2ccc3ccccc3c12` [Compound 1007A]: the “rNPFF2 IA” value at rat NPFF2 receptor came to 66% NPFF. The Ki in assay [1] was 1940 nM; in assay [2], 26 nM; on human Y1 receptor, 5240 nM; on human Y2 receptor, > 50000 nM; on human Y4 receptor, 2610 nM; on human Y5 receptor it was 74 nM.
As to `Cc1cc(NC(=N)N)nc2ccc(Cl)cc12` [Compound 4005A, N-(6-chloro-4-methyl-2-quinolinyl)guanidine], the “rNPFF2 IA” value on rat NPFF2 receptor is listed as 61% NPFF. In addition, the Ki is 8290 nM in assay [1]; 2580 nM in assay [2]; 12300 nM on human Y1 receptor; > 50000 nM on human Y2 receptor; 5050 nM at human Y4 receptor; 358 nM on human Y5 receptor.
